Here are results for one molecule from ChEMBL document CHEMBL4725218, “Deep Learning Enhancing Kinome-Wide Polypharmacology Profiling: Model Construction and Experiment Validation” (J Med Chem, 2020).

For assay [1], the target named is T1, Homeodomain-interacting protein kinase 4 (Homo sapiens) (UniProt Q8NE63).
T1 sequence (whole entry): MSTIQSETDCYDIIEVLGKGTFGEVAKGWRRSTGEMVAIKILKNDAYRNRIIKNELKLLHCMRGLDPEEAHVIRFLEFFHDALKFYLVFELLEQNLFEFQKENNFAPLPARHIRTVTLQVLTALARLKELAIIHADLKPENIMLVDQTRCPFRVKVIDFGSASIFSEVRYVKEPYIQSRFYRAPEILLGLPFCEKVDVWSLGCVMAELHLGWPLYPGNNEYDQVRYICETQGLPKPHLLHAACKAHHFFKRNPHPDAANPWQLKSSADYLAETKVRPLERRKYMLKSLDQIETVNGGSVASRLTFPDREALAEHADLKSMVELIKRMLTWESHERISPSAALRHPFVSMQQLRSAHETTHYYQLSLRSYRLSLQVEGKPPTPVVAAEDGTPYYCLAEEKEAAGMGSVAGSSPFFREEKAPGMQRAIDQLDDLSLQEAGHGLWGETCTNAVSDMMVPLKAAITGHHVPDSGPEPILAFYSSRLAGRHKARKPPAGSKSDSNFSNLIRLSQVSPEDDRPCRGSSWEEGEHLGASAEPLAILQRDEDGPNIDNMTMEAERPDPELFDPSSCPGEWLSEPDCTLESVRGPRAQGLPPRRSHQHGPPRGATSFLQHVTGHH
Put plainly: Inhibition of human HIPK4 assessed as remaining enzyme activity at 1 uM.

Assay [2] deals with Epithelial discoidin domain-containing receptor 1 (Homo sapiens) (UniProt Q08345). As to the kind of experiment: Inhibition of human DDR1 assessed as remaining enzyme activity at 1 uM.
Assay [3] deals with T2, Muscle, skeletal receptor tyrosine-protein kinase (Homo sapiens) (UniProt O15146).
T2 sequence (whole entry): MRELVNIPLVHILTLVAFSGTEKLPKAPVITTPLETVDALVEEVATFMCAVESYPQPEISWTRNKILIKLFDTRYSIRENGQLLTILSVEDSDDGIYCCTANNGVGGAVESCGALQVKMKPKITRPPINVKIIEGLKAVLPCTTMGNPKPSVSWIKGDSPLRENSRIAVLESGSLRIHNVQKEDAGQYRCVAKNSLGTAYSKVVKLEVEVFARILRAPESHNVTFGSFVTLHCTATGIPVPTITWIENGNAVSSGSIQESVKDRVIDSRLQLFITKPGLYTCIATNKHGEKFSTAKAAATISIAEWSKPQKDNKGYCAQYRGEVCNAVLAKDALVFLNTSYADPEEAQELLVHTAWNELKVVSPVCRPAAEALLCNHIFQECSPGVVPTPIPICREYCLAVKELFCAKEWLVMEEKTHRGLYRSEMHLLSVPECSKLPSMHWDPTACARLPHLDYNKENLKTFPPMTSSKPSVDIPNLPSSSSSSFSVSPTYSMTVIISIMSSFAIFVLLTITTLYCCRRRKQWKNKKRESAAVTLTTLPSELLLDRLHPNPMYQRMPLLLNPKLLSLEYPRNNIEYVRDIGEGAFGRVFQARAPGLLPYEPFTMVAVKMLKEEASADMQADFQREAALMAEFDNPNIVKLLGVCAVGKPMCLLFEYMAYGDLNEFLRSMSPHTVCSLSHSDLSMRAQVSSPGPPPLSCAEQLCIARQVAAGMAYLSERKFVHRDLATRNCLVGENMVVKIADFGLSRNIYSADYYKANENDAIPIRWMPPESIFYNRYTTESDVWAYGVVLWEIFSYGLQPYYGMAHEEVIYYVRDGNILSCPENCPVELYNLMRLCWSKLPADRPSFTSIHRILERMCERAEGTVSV
As to the kind of experiment: Inhibition of human MuSK assessed as remaining enzyme activity at 1 uM.

The target in assay [4] is Receptor-type tyrosine-protein kinase FLT3 (Homo sapiens) (UniProt P36888). As to the kind of experiment: Inhibition of human FLT3 assessed as remaining enzyme activity at 1 uM.
Receptor-type tyrosine-protein kinase FLT3 (Homo sapiens), sequence (P36888 whole entry): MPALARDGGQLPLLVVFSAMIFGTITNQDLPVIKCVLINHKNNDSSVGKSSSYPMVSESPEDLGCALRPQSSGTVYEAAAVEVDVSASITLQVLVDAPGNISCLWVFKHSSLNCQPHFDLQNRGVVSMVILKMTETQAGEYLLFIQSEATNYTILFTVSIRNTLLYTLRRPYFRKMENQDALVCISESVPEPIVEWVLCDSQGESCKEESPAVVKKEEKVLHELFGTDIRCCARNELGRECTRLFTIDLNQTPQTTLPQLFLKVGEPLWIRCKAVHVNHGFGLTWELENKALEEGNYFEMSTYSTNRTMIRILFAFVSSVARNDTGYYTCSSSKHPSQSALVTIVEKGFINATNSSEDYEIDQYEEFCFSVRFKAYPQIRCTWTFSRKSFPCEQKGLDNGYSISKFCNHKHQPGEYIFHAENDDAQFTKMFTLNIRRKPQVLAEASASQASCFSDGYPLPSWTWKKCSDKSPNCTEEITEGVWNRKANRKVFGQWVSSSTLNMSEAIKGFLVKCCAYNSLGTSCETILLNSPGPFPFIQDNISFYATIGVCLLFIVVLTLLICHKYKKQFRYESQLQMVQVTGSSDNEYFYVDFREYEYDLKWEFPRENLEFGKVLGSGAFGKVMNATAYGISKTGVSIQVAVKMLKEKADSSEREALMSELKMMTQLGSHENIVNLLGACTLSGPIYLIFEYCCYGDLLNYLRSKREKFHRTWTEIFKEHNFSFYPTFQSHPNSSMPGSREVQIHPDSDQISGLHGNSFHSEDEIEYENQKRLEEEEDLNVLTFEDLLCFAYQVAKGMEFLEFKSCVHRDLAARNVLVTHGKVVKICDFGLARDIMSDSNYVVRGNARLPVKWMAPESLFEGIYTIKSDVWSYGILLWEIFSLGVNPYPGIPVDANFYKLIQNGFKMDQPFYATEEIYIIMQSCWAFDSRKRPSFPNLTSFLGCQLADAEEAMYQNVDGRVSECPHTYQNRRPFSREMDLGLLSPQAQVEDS
The target in assay [5] is Serine/threonine-protein kinase 10 (Homo sapiens) (UniProt O94804). As to the kind of experiment: Inhibition of human LOK assessed as remaining enzyme activity at 1 uM.
Serine/threonine-protein kinase 10 (Homo sapiens), sequence (O94804 whole entry, looked up): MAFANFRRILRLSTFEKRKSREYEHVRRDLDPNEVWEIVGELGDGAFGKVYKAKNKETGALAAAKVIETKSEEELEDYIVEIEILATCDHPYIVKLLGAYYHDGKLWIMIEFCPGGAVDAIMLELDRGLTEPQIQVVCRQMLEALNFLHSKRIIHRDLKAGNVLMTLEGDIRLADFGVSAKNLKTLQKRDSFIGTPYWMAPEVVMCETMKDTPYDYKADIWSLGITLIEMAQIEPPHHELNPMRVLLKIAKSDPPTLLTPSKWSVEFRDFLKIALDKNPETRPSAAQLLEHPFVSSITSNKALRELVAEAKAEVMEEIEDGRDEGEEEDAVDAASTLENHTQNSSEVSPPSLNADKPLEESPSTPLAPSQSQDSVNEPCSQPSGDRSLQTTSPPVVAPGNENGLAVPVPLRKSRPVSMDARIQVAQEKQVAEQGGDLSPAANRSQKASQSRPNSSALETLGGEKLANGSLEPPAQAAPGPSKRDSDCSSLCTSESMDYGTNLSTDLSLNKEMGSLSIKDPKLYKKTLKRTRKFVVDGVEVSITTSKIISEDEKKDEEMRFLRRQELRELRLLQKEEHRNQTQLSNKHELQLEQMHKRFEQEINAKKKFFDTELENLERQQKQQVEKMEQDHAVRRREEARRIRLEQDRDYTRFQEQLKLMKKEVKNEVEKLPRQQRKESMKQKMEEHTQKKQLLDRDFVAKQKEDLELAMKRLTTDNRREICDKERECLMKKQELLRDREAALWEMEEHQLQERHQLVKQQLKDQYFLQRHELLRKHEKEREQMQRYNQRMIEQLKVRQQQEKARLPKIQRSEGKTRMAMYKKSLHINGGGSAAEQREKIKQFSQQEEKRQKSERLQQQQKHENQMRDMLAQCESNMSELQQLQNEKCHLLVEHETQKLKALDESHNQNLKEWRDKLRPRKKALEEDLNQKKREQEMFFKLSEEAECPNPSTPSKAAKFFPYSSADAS
Assay [6] concerns the target Mitogen-activated protein kinase kinase kinase 20 (Homo sapiens) (UniProt Q9NYL2). Put plainly: Inhibition of human ZAK assessed as remaining enzyme activity at 0.1 uM.
Assay [7] deals with T3, Ephrin type-A receptor 8 (Homo sapiens) (UniProt P29322).
T3 sequence (whole entry): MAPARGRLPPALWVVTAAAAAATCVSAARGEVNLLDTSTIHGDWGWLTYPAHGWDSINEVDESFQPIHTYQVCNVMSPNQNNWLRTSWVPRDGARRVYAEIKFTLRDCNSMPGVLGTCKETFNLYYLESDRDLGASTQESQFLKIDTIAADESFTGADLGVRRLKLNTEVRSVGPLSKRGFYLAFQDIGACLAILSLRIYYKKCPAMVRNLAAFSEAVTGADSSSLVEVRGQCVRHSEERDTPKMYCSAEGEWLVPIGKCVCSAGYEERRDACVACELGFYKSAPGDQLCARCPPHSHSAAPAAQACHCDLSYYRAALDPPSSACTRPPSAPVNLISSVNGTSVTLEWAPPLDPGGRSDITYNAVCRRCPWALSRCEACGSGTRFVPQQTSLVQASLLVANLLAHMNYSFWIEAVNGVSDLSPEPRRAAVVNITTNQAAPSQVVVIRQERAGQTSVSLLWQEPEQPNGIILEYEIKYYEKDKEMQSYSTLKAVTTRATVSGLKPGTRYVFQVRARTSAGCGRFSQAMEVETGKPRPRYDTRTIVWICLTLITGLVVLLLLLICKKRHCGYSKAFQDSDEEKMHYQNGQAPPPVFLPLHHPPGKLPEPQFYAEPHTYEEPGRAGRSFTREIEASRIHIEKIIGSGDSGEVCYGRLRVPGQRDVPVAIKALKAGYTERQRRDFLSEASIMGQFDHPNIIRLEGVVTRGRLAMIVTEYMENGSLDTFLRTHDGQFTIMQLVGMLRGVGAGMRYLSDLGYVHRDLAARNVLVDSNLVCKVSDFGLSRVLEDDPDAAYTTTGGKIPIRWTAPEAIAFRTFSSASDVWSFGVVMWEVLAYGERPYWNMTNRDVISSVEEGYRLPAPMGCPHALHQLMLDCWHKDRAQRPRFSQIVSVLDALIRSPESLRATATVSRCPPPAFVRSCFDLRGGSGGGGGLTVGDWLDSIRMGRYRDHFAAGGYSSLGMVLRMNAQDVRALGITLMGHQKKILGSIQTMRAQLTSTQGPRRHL
As to the kind of experiment: Inhibition of human EphA8 assessed as remaining enzyme activity at 0.1 uM.

Assay [8] has as its target T2, Muscle, skeletal receptor tyrosine-protein kinase (Homo sapiens). Put plainly: Inhibition of human MuSK assessed as remaining enzyme activity at 0.1 uM.
Assay [9] concerns the target RAF proto-oncogene serine/threonine-protein kinase (Homo sapiens) (UniProt P04049). As to the kind of experiment: Inhibition of human RAF1 assessed as remaining enzyme activity at 0.01 uM.
Assay [10] addresses T1, Homeodomain-interacting protein kinase 4 (Homo sapiens). As to the kind of experiment: Inhibition of human HIPK4 assessed as remaining enzyme activity at 0.01 uM.
Assay [11] deals with Tyrosine-protein kinase ABL1 (Homo sapiens) (UniProt P00519). Put plainly: Inhibition of human ABL assessed as remaining enzyme activity at 0.01 uM.
Tyrosine-protein kinase ABL1 (Homo sapiens), sequence (P00519 whole entry): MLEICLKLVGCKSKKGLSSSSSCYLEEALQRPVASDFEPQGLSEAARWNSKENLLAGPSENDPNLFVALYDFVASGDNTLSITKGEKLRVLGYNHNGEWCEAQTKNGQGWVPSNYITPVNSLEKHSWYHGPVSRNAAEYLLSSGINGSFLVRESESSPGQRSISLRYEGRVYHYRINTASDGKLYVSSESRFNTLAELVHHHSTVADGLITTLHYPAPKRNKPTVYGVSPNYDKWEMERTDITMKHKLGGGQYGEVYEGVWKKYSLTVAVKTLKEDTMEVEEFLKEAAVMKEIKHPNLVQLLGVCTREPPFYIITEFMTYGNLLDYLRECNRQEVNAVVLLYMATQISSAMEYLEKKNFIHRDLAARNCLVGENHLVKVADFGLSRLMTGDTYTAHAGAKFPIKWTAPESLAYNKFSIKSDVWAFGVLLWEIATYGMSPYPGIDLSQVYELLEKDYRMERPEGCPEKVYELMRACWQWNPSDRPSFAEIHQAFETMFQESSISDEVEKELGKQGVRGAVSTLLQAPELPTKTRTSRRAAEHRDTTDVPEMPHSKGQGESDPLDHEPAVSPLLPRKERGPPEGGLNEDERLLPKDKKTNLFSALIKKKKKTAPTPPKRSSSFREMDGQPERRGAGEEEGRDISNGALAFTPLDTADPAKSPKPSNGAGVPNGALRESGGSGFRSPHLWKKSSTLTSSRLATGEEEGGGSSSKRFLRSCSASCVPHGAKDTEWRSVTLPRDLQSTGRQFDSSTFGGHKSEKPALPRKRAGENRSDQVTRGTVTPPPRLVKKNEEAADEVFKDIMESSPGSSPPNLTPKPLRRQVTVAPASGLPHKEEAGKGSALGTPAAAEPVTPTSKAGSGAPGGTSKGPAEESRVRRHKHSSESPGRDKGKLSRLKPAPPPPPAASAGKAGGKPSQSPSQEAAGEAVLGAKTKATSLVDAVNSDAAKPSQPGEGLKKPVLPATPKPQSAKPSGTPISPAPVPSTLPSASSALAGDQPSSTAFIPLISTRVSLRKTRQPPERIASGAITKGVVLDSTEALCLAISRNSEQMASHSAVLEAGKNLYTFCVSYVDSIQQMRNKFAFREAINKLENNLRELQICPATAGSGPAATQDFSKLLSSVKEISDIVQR

RAF proto-oncogene serine/threonine-protein kinase (Homo sapiens), sequence (P04049 whole entry): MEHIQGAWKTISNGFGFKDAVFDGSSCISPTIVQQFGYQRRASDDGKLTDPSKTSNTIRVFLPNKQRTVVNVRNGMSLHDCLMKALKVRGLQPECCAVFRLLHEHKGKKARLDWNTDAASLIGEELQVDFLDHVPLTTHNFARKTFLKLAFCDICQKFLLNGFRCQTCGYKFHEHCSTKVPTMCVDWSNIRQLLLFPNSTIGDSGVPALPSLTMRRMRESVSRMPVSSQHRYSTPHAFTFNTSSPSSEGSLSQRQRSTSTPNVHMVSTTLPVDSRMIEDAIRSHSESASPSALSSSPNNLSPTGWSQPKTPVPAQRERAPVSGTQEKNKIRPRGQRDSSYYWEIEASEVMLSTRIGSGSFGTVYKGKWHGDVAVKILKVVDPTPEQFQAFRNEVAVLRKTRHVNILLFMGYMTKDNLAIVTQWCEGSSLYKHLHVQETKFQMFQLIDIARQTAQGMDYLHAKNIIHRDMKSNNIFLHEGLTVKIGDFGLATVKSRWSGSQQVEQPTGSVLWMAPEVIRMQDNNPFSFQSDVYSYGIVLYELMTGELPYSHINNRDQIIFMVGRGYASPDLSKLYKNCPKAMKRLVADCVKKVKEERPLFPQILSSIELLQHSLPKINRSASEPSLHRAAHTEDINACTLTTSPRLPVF
Mitogen-activated protein kinase kinase kinase 20 (Homo sapiens), sequence (Q9NYL2 2-800 limits assumed): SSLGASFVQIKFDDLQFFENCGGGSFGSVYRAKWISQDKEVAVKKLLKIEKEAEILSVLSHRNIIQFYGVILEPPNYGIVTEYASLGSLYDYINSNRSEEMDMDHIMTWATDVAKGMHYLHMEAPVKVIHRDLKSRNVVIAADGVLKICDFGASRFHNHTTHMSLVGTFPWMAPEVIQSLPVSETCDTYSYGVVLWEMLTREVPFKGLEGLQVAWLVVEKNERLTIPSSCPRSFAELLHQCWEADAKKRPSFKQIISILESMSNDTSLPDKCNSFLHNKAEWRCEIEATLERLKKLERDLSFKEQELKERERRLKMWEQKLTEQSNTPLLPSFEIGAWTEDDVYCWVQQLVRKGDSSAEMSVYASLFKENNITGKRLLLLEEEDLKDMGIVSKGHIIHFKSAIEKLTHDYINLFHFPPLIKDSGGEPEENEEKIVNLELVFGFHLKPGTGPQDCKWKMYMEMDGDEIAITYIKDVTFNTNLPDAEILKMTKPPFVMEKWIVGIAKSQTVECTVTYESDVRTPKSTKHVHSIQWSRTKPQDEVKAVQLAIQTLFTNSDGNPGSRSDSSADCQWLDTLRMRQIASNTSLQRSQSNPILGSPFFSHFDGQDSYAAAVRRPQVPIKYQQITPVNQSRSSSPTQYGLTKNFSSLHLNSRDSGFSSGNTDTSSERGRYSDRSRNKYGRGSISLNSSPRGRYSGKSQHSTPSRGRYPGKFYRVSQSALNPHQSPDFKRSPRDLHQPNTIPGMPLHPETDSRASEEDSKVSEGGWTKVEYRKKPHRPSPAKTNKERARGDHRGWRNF

Regarding `CNC(=O)c1cc(Oc2ccc(NC(=O)Nc3ccc(Cl)c(C(F)(F)F)c3)c(F)c2)ccn1`, the Activity was -1% in [1]; 11% in assay [2]; 21% in assay [3]; 31% in assay [4]; 34% in [5]; 2% in assay [6]. For the same molecule, the Activity in assay [7] is 44%; in assay [8], 92%; in [9] it was 93%; in assay [10] it was 31%; in [11] it was 79%.
